SMILES strings stand for the structures. Converted amounts (≈) assume the structure as drawn. Bounds are passed on as bounds.

The subject of data set [1] is Staphylococcus epidermidis. Briefly: Antibacterial activity against methicillin resistant Staphylococcus epidermidis ATCC 13199 cultured in MH medium assessed as reduction in bacterial growth incubated for 48 hrs by microbroth dilution method. In kind it is functional. As to conditions: ATCC 13199, 48 h.
Data set [2] relates to Staphylococcus aureus. Briefly: Antibacterial activity against methicillin resistant Staphylococcus aureus 6347 cultured in MH medium assessed as reduction in bacterial growth incubated for 48 hrs by microbroth dilution method. The data set is classed as functional. As to conditions: Staphylococcus aureus, 6347, 48 h.
For data set [3], the system named is Serratia marcescens. The data set can be described thus: Bactericidal activity against Serratia marcescens ATCC 12795 cultured in MH medium assessed as reduction in bacterial survival incubated for 48 hrs by microbroth dilution method. Particulars: ATCC 12795, 48 h. In kind it is functional.
Another data set has as its system Enterococcus hirae. The data set can be described thus: Antibacterial activity against Enterococcus hirae ATCC 1052 cultured in BHI medium assessed as reduction in bacterial growth incubated for 48 hrs by microbroth dilution method. In kind it is functional. Particulars: ATCC 1052, 48 h.
In data set [4] the test system is HEK293. The data set can be described thus: Cytotoxicity against human HEK293 cells assessed as changes in cell morphology upto 20 uM incubated for 72 hrs by MTT assay. Particulars: hek293, 72 h. In kind it is cell-based.
Data set [5] can be described thus: Lipophilicity, log k of the compound at 100 ug/ml by micellar electrokinetic chromatography. The data set is classed as physicochemical.
Data set [6] relates to Staphylococcus aureus. The data set can be described thus: Antibacterial activity against Staphylococcus aureus ATCC 6538 cultured in MH medium assessed as reduction in bacterial growth incubated for 48 hrs by microbroth dilution method. As to conditions: ATCC 6538, 48 h. The data set is classed as functional.
For data set [7], the system named is Staphylococcus aureus. Briefly: Bactericidal activity against Staphylococcus aureus ATCC 6538 cultured in MH medium assessed as reduction in bacterial survival incubated for 48 hrs by microbroth dilution method. In kind it is functional. As to conditions: ATCC 6538, 48 h.
The subject of data set [8] is Pseudomonas aeruginosa. Briefly: Bactericidal activity against Pseudomonas aeruginosa ATCC 9027 cultured in MH medium assessed as reduction in bacterial survival incubated for 48 hrs by microbroth dilution method. As to conditions: ATCC 9027, 48 h. The data set is classed as functional.
In data set [9] the test system is Staphylococcus aureus. Briefly: Antibacterial activity against methicillin resistant Staphylococcus aureus N315 cultured in MH medium assessed as reduction in bacterial growth incubated for 48 hrs by microbroth dilution method. In kind it is functional. Particulars: N315, 48 h.
The test system of data set [10] is Staphylococcus aureus. The data set can be described thus: Bactericidal activity against methicillin resistant Staphylococcus aureus N315 cultured in MH medium assessed as reduction in bacterial survival incubated for 48 hrs by microbroth dilution method. In kind it is functional. Particulars: N315, 48 h.
The test system of data set [11] is Serratia marcescens. The data set can be described thus: Antibacterial activity against Serratia marcescens ATCC 12795 cultured in MH medium assessed as reduction in bacterial growth incubated for 48 hrs by microbroth dilution method. In kind it is functional. As to conditions: ATCC 12795, 48 h.
In data set [12] the test system is Pseudomonas aeruginosa. Briefly: Antibacterial activity against Pseudomonas aeruginosa ATCC 9027 cultured in MH medium assessed as reduction in bacterial growth incubated for 48 hrs by microbroth dilution method. As to conditions: ATCC 9027, 48 h. The data set is classed as functional.
Data set [13] has as its system HEK293. Briefly: Cytotoxicity against human HEK293 cells assessed as cell viability upto 20 uM incubated for 72 hrs by MTT assay. As to conditions: hek293, 72 h. In kind it is cell-based.
Data set [14] relates to Proteus vulgaris. Briefly: Bactericidal activity against Proteus vulgaris NCTC 4635 cultured in MH medium assessed as reduction in bacterial survival incubated for 48 hrs by microbroth dilution method. The data set is classed as functional. Particulars: NCTC 4635, 48 h.
Data set [15] concerns Bacillus spizizenii. Briefly: Antibacterial activity against Bacillus subtilis ATCC 6633 cultured in MH medium assessed as reduction in bacterial growth incubated for 48 hrs by microbroth dilution method. Particulars: ATCC 6633, 48 h. In kind it is functional.
In data set [16] the test system is Escherichia coli. Briefly: Bactericidal activity against Escherichia coli ATCC 8739 cultured in MH medium assessed as reduction in bacterial survival incubated for 48 hrs by microbroth dilution method. The data set is classed as functional. As to conditions: ATCC 8739, 48 h.
In data set [17] the test system is Bacillus spizizenii. The data set can be described thus: Bactericidal activity against Bacillus subtilis ATCC 6633 cultured in MH medium assessed as reduction in bacterial survival incubated for 48 hrs by microbroth dilution method. As to conditions: ATCC 6633, 48 h. The data set is classed as functional.
Data set [18] deals with Staphylococcus epidermidis. Briefly: Bactericidal activity against Staphylococcus epidermidis ATCC 14990 cultured in MH medium assessed as reduction in bacterial survival incubated for 48 hrs by microbroth dilution method. In kind it is functional. As to conditions: ATCC 14990, 48 h.
Data set [19] deals with Proteus vulgaris. The data set can be described thus: Antibacterial activity against Proteus vulgaris NCTC 4635 cultured in MH medium assessed as reduction in bacterial growth incubated for 48 hrs by microbroth dilution method. Particulars: NCTC 4635, 48 h. In kind it is functional.
Data set [20] has as its system Staphylococcus epidermidis. Briefly: Antibacterial activity against Staphylococcus epidermidis ATCC 14990 cultured in MH medium assessed as reduction in bacterial growth incubated for 48 hrs by microbroth dilution method. As to conditions: ATCC 14990, 48 h. In kind it is functional.
Another data set has as its system Streptococcus pneumoniae. The data set can be described thus: Antibacterial activity against Streptococcus pneumoniae cultured in MH medium assessed as reduction in bacterial growth incubated for 48 hrs by microbroth dilution method. The data set is classed as functional.
Data set [21] relates to Escherichia coli. Briefly: Antibacterial activity against Escherichia coli ATCC 8739 cultured in MH medium assessed as reduction in bacterial growth incubated for 48 hrs by microbroth dilution method. The data set is classed as functional. Particulars: ATCC 8739, 48 h.
The subject of data set [22] is Staphylococcus epidermidis. The data set can be described thus: Bactericidal activity against methicillin resistant Staphylococcus epidermidis ATCC 13199 cultured in MH medium assessed as reduction in bacterial survival incubated for 48 hrs by microbroth dilution method. The data set is classed as functional. As to conditions: ATCC 13199, 48 h.
For data set [23], the system named is Staphylococcus aureus. The data set can be described thus: Bactericidal activity against methicillin resistant Staphylococcus aureus 6347 cultured in MH medium assessed as reduction in bacterial survival incubated for 48 hrs by microbroth dilution method. In kind it is functional. As to conditions: Staphylococcus aureus, 6347, 48 h.

On to `CCn1cc(C(=O)O)c(=O)c2cc(F)c(N3CC[N+]4(CC3)CN3C(C)=CC(C)=C(C(=O)O)C3=N4)cc21.[Cl-]`, for which the MIC is 32 µg/mL in [1]; 64 µg/mL with Staphylococcus aureus [2]; more than 512 µg/mL in the data set on Enterococcus hirae; 64 µg/mL with Staphylococcus aureus [6]; 128 µg/mL in the data set on Staphylococcus aureus [9]; 64 µg/mL in the data set on Serratia marcescens [11]. For the same molecule, the minimum inhibitory concentration (MIC) in the data set on Pseudomonas aeruginosa [12] was 256 µg/mL; with Bacillus spizizenii [15], 16 µg/mL; in the data set on Proteus vulgaris [19], 0.25 µg/mL; in data set [20] it was 64 µg/mL; in the data set on Streptococcus pneumoniae it was more than 512 µg/mL; in the data set with Escherichia coli [21], 4 µg/mL. Moreover, the MBC was 128 µg/mL with Serratia marcescens [3]; 128 µg/mL in the data set on Staphylococcus aureus [7]; more than 512 µg/mL in the data set with Pseudomonas aeruginosa [8]; 128 µg/mL in the data set with Staphylococcus aureus [10]; 0.5 µg/mL in the data set with Proteus vulgaris [14]; 8 µg/mL in the data set with Escherichia coli [16]. Besides, the MBC with Bacillus spizizenii [17] was 64 µg/mL; in data set [18] it was 128 µg/mL; in data set [22] it was 32 µg/mL; in the data set on Staphylococcus aureus [23], 128 µg/mL. The Activity result in the data set on HEK293 [4] and with HEK293 [13] was “Non-Toxic” each time. Moreover, in [5], the “log K” value is -0.2721.
As to `CCn1cc(C(=O)O)c(=O)c2cc(F)c(N3CC[N+]4(CC3)CN3C(=N4)C(C(=O)O)=Cc4ccccc43)cc21.[Cl-]`, the MIC in data set [1] was 64 µg/mL; in the data set with Staphylococcus aureus [2], 32 µg/mL; in the data set with Enterococcus hirae, more than 512 µg/mL; in the data set on Staphylococcus aureus [6], 64 µg/mL; in the data set on Staphylococcus aureus [9], 64 µg/mL; in the data set with Serratia marcescens [11] it was 32 µg/mL. Besides, the minimal inhibitory concentration (MIC) in the data set on Pseudomonas aeruginosa [12] is 64 µg/mL; in the data set with Bacillus spizizenii [15] it was 16 µg/mL; in the data set with Proteus vulgaris [19] it was 2 µg/mL; in [20], 32 µg/mL; in the data set with Streptococcus pneumoniae, more than 512 µg/mL; with Escherichia coli [21] it was 4 µg/mL. Moreover, the MBC in the data set on Serratia marcescens [3] came to 32 µg/mL; in the data set on Staphylococcus aureus [7], 64 µg/mL; in the data set on Pseudomonas aeruginosa [8], 64 µg/mL; in the data set on Staphylococcus aureus [10], 64 µg/mL; in the data set with Proteus vulgaris [14] it was 2 µg/mL; in the data set on Escherichia coli [16], 4 µg/mL. For the same molecule, the minimal bactericidal concentration (MBC) in the data set on Bacillus spizizenii [17] was determined as 16 µg/mL; in data set [18], 32 µg/mL; in data set [22], 64 µg/mL; in the data set with Staphylococcus aureus [23] it was 32 µg/mL. Further, the Activity result with HEK293 [4] and in the data set on HEK293 [13] was “Non-Toxic” each time. Moreover, the “log K” value in [5] was -0.1044.
As for `CCn1cc(C(=O)O)c(=O)c2cnc(N3CC[N+]4(CC3)CN3C(C)=CC(C)=C(C(=O)O)C3=N4)nc21.[Cl-]`, the minimal inhibitory concentration (MIC) (in data set [1]; with Staphylococcus aureus [2]; in the data set with Enterococcus hirae; in the data set on Staphylococcus aureus [6]; in the data set with Staphylococcus aureus [9]; in the data set with Serratia marcescens [11]) was more than 512 µg/mL in each case. Besides, the minimum inhibitory concentration (MIC) in the data set with Pseudomonas aeruginosa [12] is more than 512 µg/mL; with Bacillus spizizenii [15], more than 512 µg/mL; with Proteus vulgaris [19], 256 µg/mL; in data set [20], more than 512 µg/mL; with Streptococcus pneumoniae, more than 512 µg/mL; in the data set with Escherichia coli [21], more than 512 µg/mL. Also, the Activity entry in the data set with HEK293 [4] and with HEK293 [13] was “Non-Toxic” each time. The “log K” value in data set [5] was -0.5725. Moreover, the minimal bactericidal concentration (MBC) with Proteus vulgaris [14] was more than 512 µg/mL.
As for `CCn1cc(C(=O)O)c(=O)c2cnc(N3CCNCC3)nc21` [PIPEMIDIC ACID], the MIC in [1] was 32 µg/mL (≈ 105 µM); in the data set on Staphylococcus aureus [2], 32 µg/mL (≈ 105 µM); with Enterococcus hirae, more than 512 µg/mL; in the data set on Staphylococcus aureus [6], 64 µg/mL (≈ 211 µM); in the data set on Staphylococcus aureus [9], 32 µg/mL (≈ 105 µM); with Serratia marcescens [11], 2 µg/mL (≈ 6.59 µM). In addition, the MIC in the data set with Pseudomonas aeruginosa [12] is 8 µg/mL (≈ 26.4 µM); in the data set with Bacillus spizizenii [15], 2 µg/mL (≈ 6.59 µM); with Proteus vulgaris [19], 0.004 µg/mL (≈ 0.0132 µM); in [20], 32 µg/mL (≈ 105 µM); with Streptococcus pneumoniae it was more than 512 µg/mL; in the data set with Escherichia coli [21] it was 2 µg/mL (≈ 6.59 µM). Besides, the MBC with Serratia marcescens [3] turned out to be 2 µg/mL (≈ 6.59 µM); in the data set on Staphylococcus aureus [7], 128 µg/mL (≈ 422 µM); with Pseudomonas aeruginosa [8], 8 µg/mL (≈ 26.4 µM); in the data set with Staphylococcus aureus [10], 32 µg/mL (≈ 105 µM); with Proteus vulgaris [14], 0.004 µg/mL (≈ 0.0132 µM); with Escherichia coli [16] it was 2 µg/mL (≈ 6.59 µM). Besides, the MBC stood at 2 µg/mL (≈ 6.59 µM) with Bacillus spizizenii [17], 32 µg/mL (≈ 105 µM) in data set [18], 64 µg/mL (≈ 211 µM) in data set [22] and 32 µg/mL (≈ 105 µM) with Staphylococcus aureus [23]. In addition, the “log K” value in data set [5] is reported as -0.1697.
